Laboratory results reported in patent US8598157B2, “5-alkynyl-pyridines” (Boehringer Ingelheim International GmbH, priority 2011, dated 2013).

Legend:
BT474 cells = assay: alamarBlue BT474 cell assay (antiproliferative/cytotoxicity); format: cell-based; settings: BT-474 human breast cancer cell line
Text: (§1) The H460, MB453, U87, MCF7 and BT474 alamarBlue cell assays provide EC50 values indicative of the antiproliferative or cytotoxic effects of the compounds to respectively the H460 (human non small cell line cancer), MB-453 (breast cancer cell line), U87 (glioblastoma cell line), MCF7 (breast cancer cell line) and BT474 (breast cancer cell line). As known in the field, antiproliferative or cytotoxic effect against this cell lines would be expected to be indicative of activity in treating lung, breast and brain cancers. See R. Marone R et al. Biochim. Biophys. Acta. 2008 January; 1784(1):159-85. S. Yaguchi et al., J. Natl. Cancer Inst. 2006 Apr. 19; 98(8):545-56.
(§2) Method Type: Antiproliferative/Cytotoxicity
(§3) alamarBlue® is designed to provide a rapid and sensitive measure of cell proliferation and cytotoxicity in various human and animal cell lines. The assay is based on the reduction of alamarBlue in the reducing environment of living (metabolically active) cells. In the presence of added cytotoxic or antiproliferative compounds, the innate metabolic activity ceases.
(§4) AlamarBlue is soluble and stable in culture medium. Measurements are made fluorometrically by exciting at 530-560 nm and measuring emission at 590 nm. In reporting percent alamarBlue reduction by monitoring fluorescence, data are expressed as fluorescence emission intensity units as a function of time of incubation.
(§5) 3. Equipment • 96-well plates, flat bottom (Falcon, Cat. No.: 353072) • 96-well plates, U-shaped (Costar, Cat. No.: 3799) • CO2-Incubator • Microplate Reader, Spectramax Plus, Molecular Devices 4. Typical Procedure • Day 0: Seed 3000 BT-474 cells (IMDM/5% FCS, 1% NEAA, 1% Sodiumpyruvat) in 150 μl medium into a 96-well plate, flat bottom (include mediumblank). Incubate plates at 37° C. in a CO2 incubator overnight. • Day 1: Dilute compounds to a concentration 40 μM->1:3 in medium, 10 dilution steps, in 96-well plates. • Add 50 μl per well of each dilution (total volume per well 200 μl; final conc. of cpds: 10 μM->1:3). If required, test further dilutions. • All concentrations are tested in duplicates. • Controls: Cells w/o cpd. (+50 μl medium/DMSO). • Cells are incubated with compounds for 5-6 days. • Day 6 or 7: Add 25 μl of alamarBlue solution to each well and incubate for 8 hours at 37° C. Measure fluorescence by exciting at 530-560 nm and measuring emission at 590 nm. 5. Evaluation • Subtract average value for medium blank from sample readings • Calculate EC50 using GraphPad Prism (Fifty)

PI3Kalpha = PI3Kalpha (Homo sapiens (Human), UniProt P42336); assay: Inhibition of PI3Kalpha-induced PIP-2 phosphorylation (filter-binding assay); format: biochemical; settings: 33P-ATP, p85alpha/His-p110alpha, read-out: IC50 PI3Kα
Chain of PI3Kalpha (P42336 whole entry): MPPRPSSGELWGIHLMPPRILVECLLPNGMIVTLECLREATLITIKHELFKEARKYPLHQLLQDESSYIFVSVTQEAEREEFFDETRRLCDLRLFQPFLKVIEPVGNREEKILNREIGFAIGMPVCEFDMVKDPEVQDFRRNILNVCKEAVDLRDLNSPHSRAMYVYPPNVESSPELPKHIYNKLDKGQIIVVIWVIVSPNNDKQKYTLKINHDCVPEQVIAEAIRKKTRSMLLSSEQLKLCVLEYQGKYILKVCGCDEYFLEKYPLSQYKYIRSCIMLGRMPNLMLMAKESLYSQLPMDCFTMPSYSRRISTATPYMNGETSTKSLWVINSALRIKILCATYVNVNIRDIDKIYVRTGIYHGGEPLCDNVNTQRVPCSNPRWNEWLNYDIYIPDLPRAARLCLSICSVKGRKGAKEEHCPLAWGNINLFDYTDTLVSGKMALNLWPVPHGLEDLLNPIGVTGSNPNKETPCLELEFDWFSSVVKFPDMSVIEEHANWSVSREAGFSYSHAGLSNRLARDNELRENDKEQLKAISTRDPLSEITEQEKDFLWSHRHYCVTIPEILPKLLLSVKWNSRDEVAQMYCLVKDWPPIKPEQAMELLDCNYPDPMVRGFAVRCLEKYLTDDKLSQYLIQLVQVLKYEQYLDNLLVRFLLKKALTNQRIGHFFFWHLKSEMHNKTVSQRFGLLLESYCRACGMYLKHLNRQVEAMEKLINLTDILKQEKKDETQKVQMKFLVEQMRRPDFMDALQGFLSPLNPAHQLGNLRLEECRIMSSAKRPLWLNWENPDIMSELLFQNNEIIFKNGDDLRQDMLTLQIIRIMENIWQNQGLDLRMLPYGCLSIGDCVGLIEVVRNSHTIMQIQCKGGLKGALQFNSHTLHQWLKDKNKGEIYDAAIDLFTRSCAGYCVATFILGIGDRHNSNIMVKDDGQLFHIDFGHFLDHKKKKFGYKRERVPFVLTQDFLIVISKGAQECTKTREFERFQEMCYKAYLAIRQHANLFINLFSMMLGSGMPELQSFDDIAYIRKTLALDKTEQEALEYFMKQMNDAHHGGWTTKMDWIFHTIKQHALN
Text: Inhibition of PI3Kalpha-Induced PIP-2 Phosphorylation
This PI3Kalpha assay provides an IC50 value indicative of the activity of the compounds to inhibit PI3 kinase alpha activity. Inhibition of PI3 kinase would be expected to be indicative of activity in treating conditions of excessive or anomalous cell proliferation, such as cancers. See also J. A. Engelman, Nature Reviews Cancer, 2009, 9, 550-562; A. Carnero, Expert Opin. Investig. Drugs, 2009, 18, 1265-1277 and P. Liu et al., Nature Reviews Drug Discovery, 2009, 8, 627-64.
Method Type: Filter-Binding-Assay
Aliquoted in desired amounts and stored at −80° C. Final assay concentration 25 ng/well • Phosphotyrosin PDGFRbeta-peptide H-CGG-pY-[…]-pY-VPMLDM-NH2 was synthesized by Jerini Peptide Technologies (JPT) and used in a final conc. of 1.7 μM (stock 100 μM prepared in Assay buffer with DTT, aliquoted in desired amounts and stored at −80° C.) • Cold ATP (from Sigma; A-7699), 100 μM stock solution in H2O, use 1 μM final concentration in assay • [33P]-ATP, 370 MBq/ml from Amersham (#AH9968), use 0.5 μCi/well (10 mCi/ml) • Clear 96-well plates from Greiner (#655 162) • Filter plates: Perkin Elmer UniFilter GF/B #6005177 • Microscint 0 (from Perkin Elmer, #6013611) 2. Assay Procedure
The substrate-containing lipid vesicles are dissolved to a concentration of 0.637 mg lipid blend/ml assay buffer (with BSA, freshly added) in 50 ml Falcon->keep on ice, followed by ultrasonication (pulse of 15 sec followed by a pause of 10 sec, 4×). Compounds are serially diluted in assay buffer+6% DMSO and […] of each dilution is added per well of a 96-well plate (compounds are tested in duplicates) and mixed with 30 μl of the lipid vesicles containing PDGFR-Peptide ([…]) and PI3K alpha (25 ng/well final). The mixture is then incubated for 20 minutes at room temperature. Subsequently, 20 μl of assay buffer containing […] cold ATP and 0.5 μCi/20 μl 33P-ATP are added. The plates are then incubated at room temperature for 120 minutes (shaking with 300 rpm).
The reaction mix is transferred onto filter plates using “filtermate harvester” from Packard: filter plates are rinsed with PBS, then the reaction mix is filtered onto the filter plate, washed 5 times with PBS and are allowed to dry for 30-60 minutes at 50° C.
The plate bottom is sealed with Perkin Elmer white adhesive foil and 25 μl/well Microscint( ) are added, the top is covered with transparent adhesive foil and the plate is measured with Wallac Trilux 1450 Microbeta Counter.
As positive control serve wells containing vehicle controls (1% DMSO in assay buffer), showing non-inhibited kinase activity (high values). Wells containing assay buffer instead of enzyme can serve as control for background activity (low values).
Calculate IC50 values using the Smiley program (based on GrapPad Prism)

MB453 cells = assay: alamarBlue MB453 cell assay (antiproliferative/cytotoxicity); format: cell-based; settings: Homo sapiens; MDA MB 453 breast cancer cell line
Text: as §1, §2, §3, §4, §5

H460 cells = assay: alamarBlue H460 cell assay (antiproliferative/cytotoxicity); format: cell-based; settings: NCI-H460; H460 human lung carcinoma cells
Text: as §1, §2, §3, §4, §5

U87 cells = assay: U87 cell assay (antiproliferative/cytotoxicity); format: cell-based; settings: U-87MG human glioblastoma cells
Text: as §1, §2, §3, §4, §5

SMILES: CCc1ncnc(N2CCOCC2)c1C#Cc1cnc(OC)c(NS(=O)(=O)c2ccco2)c1 [Example I-80, Furan-2-sulfonic acid [5-(4-ethyl-6-morpholin-4-yl-pyrimidin-5-ylethynyl)-2-methoxy-pyridin-3-yl]-amide]
- EC50 (BT474 cells): 40 nM
- IC50 (PI3Kalpha): 0.55 nM

SMILES: COc1ncc(C#Cc2c(C)ncnc2N2CCOCC2)cc1NS(=O)(=O)c1ccc(Cl)cc1 [Example I-84, 4-Chloro-N-[2-methoxy-5-(4-methyl-6-morpholin-4-yl-pyrimidin-5-ylethynyl)-pyridin-3-yl]-benzenesulfonamide]
- EC50 (BT474 cells): 48 nM
- EC50 (MB453 cells): 49 nM
- EC50 (H460 cells): 41 nM
- IC50 (PI3Kalpha): 0.3 nM
- EC50 (U87 cells): 24 nM

SMILES: Cc1ncc(C#Cc2c(C)ncnc2N(C)CC2CCOC2)cc1NS(=O)(=O)c1ccccc1 (stereo not drawn) [Example I-72, N-(2-Methyl-5-{4-methyl-6-[methyl-(tetrahydro-furan-3-ylmethyl)-amino]-pyrimidin-5-ylethynyl}-pyridin-3-yl)-benzenesulfonamide]
- EC50 (BT474 cells): 5160 nM
- IC50 (PI3Kalpha): 8 nM

SMILES: Cc1ncc(C#Cc2c(C)ncnc2NC(C)C)cc1NS(=O)(=O)c1ccccc1 [Example I-59, N-[5-(4-Isopropylamino-6-methyl-pyrimidin-5-ylethynyl)-2-methyl-pyridin-3-yl]-benzenesulfonamide]
- EC50 (BT474 cells): 5000 nM
- EC50 (MB453 cells): 1930 nM
- EC50 (H460 cells): 723 nM
- IC50 (PI3Kalpha): 6 nM
- EC50 (U87 cells): 1000 nM

SMILES: CCc1ncnc(N2CCOCC2)c1C#Cc1cnc(OC)c(NS(=O)(=O)C2CC2)c1 [Example I-77, Cyclopropanesulfonic acid [5-(4-ethyl-6-morpholin-4-yl-pyrimidin-5-ylethynyl)-2-methoxy-pyridin-3-yl]-amide]
- EC50 (BT474 cells): 263 nM
- IC50 (PI3Kalpha): 1 nM

SMILES: CCc1nc(N)nc(N2CCC(O)CC2)c1C#Cc1cnc(C)c(NS(C)(=O)=O)c1 [Example I-35, N-{5-[2-Amino-4-ethyl-6-(4-hydroxy-piperidin-1-yl)-pyrimidin-5-ylethynyl]-2-methyl-pyridin-3-yl}-methanesulfonamide]
- EC50 (H460 cells): 25000 nM
- IC50 (PI3Kalpha): 5 nM

SMILES: COc1ncc(C#Cc2c(C)ncnc2N2CCOCC2)cc1NS(=O)(=O)c1ccc(Cl)s1 [Example I-85, 5-Chloro-N-[2-methoxy-5-(4-methyl-6-morpholin-4-yl-pyrimidin-5-ylethynyl)-pyridin-3-yl]-thiophene-2-sulfonamide]
- EC50 (BT474 cells): 34 nM
- EC50 (MB453 cells): 40 nM
- EC50 (H460 cells): 47 nM
- IC50 (PI3Kalpha): 0.38 nM
- EC50 (U87 cells): 64 nM

SMILES: CCc1nc(N)nc(N2CCC(C)(O)CC2)c1C#Cc1cnc(C)c(NS(C)(=O)=O)c1 [Example I-43, N-{5-[2-Amino-4-ethyl-6-(4-hydroxy-4-methyl-piperidin-1-yl)-pyrimidin-5-ylethynyl]-2-methyl-pyridin-3-yl}-methanesulfonamide]
- EC50 (H460 cells): 3670 nM
- IC50 (PI3Kalpha): 3 nM

SMILES: CCc1ncnc(N2CCOCC2)c1C#Cc1cnc(OC)c(NS(=O)(=O)CC)c1 [Example I-76, Ethanesulfonic acid [5-(4-ethyl-6-morpholin-4-yl-pyrimidin-5-ylethynyl)-2-methoxy-pyridin-3-yl]-amide]
- EC50 (BT474 cells): 342 nM
- IC50 (PI3Kalpha): 2 nM

SMILES: CCc1nc(N)nc(N2CCCCC2)c1C#Cc1cnc(C)c(NS(C)(=O)=O)c1 [Example I-36, N-[5-(2-Amino-4-ethyl-6-piperidin-1-yl-pyrimidin-5-ylethynyl)-2-methyl-pyridin-3-yl]-methanesulfonamide]
- IC50 (PI3Kalpha): 5 nM

SMILES: Cc1ncc(C#Cc2c(C)ncnc2N2CCOC[C@H]2C)cc1NS(=O)(=O)c1ccccc1 [Example I-69, N-{2-Methyl-5-[4-methyl-6-((R)-3-methyl-morpholin-4-yl)-pyrimidin-5-ylethynyl]-pyridin-3-yl}-benzenesuIfonamide]
- EC50 (BT474 cells): 749 nM
- IC50 (PI3Kalpha): 2 nM

SMILES: CCc1ncnc(N2CCC(C)(O)CC2)c1C#Cc1cnc(C)c(NS(C)(=O)=O)c1 [Example I-42, N-{5-[4-Ethyl-6-(4-hydroxy-4-methyl-piperidin-1-yl)-pyrimidin-5-ylethynyl]-2-methyl-pyridin-3-yl}-methanesulfonamide]
- EC50 (H460 cells): 295 nM
- IC50 (PI3Kalpha): 0.55 nM

SMILES: Cc1ncc(C#Cc2c(C)ncnc2N2CCOC[C@@H]2C)cc1NS(=O)(=O)c1ccccc1 [Example I-70, N-{2-Methyl-5-[4-methyl-6-((S)-3-methyl-morpholin-4-yl)-pyrimidin-5-ylethynyl]-pyridin-3-yl}-benzenesulfonamide]
- EC50 (BT474 cells): 615 nM
- IC50 (PI3Kalpha): 0.2 nM

SMILES: CCc1ncnc(N2CCOCC2)c1C#Cc1cnc(OC)c(NS(C)(=O)=O)c1 [Example I-75, N-[5-(4-Ethyl-6-morpholin-4-yl-pyrimidin-5-ylethynyl)-2-methoxy-pyridin-3-yl]-methanesulfonamide]
- EC50 (BT474 cells): 247 nM
- IC50 (PI3Kalpha): 1 nM

SMILES: CCc1ncnc(NC)c1C#Cc1cnc(C)c(NS(C)(=O)=O)c1 [Example I-33, N-[5-(4-Ethyl-6-methylamino-pyrimidin-5-ylethynyl)-2-methyl-pyridin-3-yl]-methanesulfonamide]
- IC50 (PI3Kalpha): 49 nM

SMILES: CCc1ncnc(N2CCOCC2)c1C#Cc1cnc(OC)c(NS(=O)(=O)CCOC)c1 [Example I-78, 2-Methoxy-ethanesulfonic acid [5-(4-ethyl-6-morpholin-4-yl-pyrimidin-5-ylethynyl)-2-methoxy-pyridin-3-yl]-amide]
- EC50 (BT474 cells): 469 nM
- IC50 (PI3Kalpha): 2 nM

SMILES: Cc1ncc(C#Cc2c(C)ncnc2N2CCCOCC2)cc1NS(=O)(=O)c1ccccc1 [Example I-73, N-[2-Methyl-5-(4-methyl-6-[1,4]oxazepan-4-yl-pyrimidin-5-ylethynyl)-pyridin-3-yl]-benzenesulfonamide]
- EC50 (BT474 cells): 1940 nM
- IC50 (PI3Kalpha): 2 nM

SMILES: CCc1ncnc(N2CCOCC2)c1C#Cc1cnc(OC)c(NS(=O)(=O)c2cccs2)c1 [Example I-79, Thiophene-2-sulfonic acid [5-(4-ethyl-6-morpholin-4-yl-pyrimidin-5-ylethynyl)-2-methoxy-pyridin-3-yl]-amide]
- EC50 (BT474 cells): 20 nM
- IC50 (PI3Kalpha): 0.75 nM

SMILES: CCc1ncnc(N2CCCCC2)c1C#Cc1cnc(C)c(NS(C)(=O)=O)c1 [Example I-44, N-[5-(4-Ethyl-6-piperidin-1-yl-pyrimidin-5-ylethynyl)-2-methyl-pyridin-3-yl]-methanesulfonamide]
- EC50 (H460 cells): 117 nM
- IC50 (PI3Kalpha): 2 nM
